Assay results reported in US20060024376A1, “Methods and compositions for reducing toxicity associated with leflunomide treatment” (The University of Chicago, priority 2004, published 2006).
“And” between values parts separate entries of the source, which are not always exact repeats. Equal entries are not always repeated.

Experiments:
[1] = background statement, cited from earlier work
[2] = tested on: heart transplants from Brown-Norway rats; assay: Heart transplant acute rejection: graft survival and inflammation score; format: in vivo, Lewis Rats; conditions: for Graft survival / Inflammation score (Mean) (0-3): orotic acid 0 mg/kg/day; for Inflammation score (Mean) (0-3): 0 = no inflammation
Experimental: Treatments included 0, 5, 10 or 15 mg/kg of leflunomide in combination with 0 or 100 mg/kg orotic acid.

[3] = Leflunomide toxicity measured by hematocrit; format: in vivo, Lewis rats; conditions: for Hct Week 0 / Hct Week 1 / Hct Week 2 / Hct Week 3 / Hct Week 4: individual rat; for Hct Week 0: baseline hematocrit; for Hct Week 1: week 1 of therapy; for Hct Week 2: week 2 of therapy; for Hct Week 3: week 3 of therapy; for Hct Week 4: week 4 of therapy
Experimental: The experiment of Example 2 was repeated in Lewis rats and the hematocrit measured weekly for four weeks. The rats receiving treatment were divided into five groups wherein each group received 30/mg/kg/day leflunomide, a toxic, high dose. Group I received leflunomide only. Group II received the leflunomide dose plus 36/mg/kg/day of sodium orotate; group III received the leflunomide dose plus 100 mg/kg/day of sodium orotate; group IV received the leflunomide dose plus 88 mg/kg/day of orotic acid; and group V received the leflunomide dose plus 250 mg/kg/day of uridine given IP. A baseline hematocrit was measured, and hematocrits of each rat were measured at weeks 1-4 post commencement of therapy.

## CC(=O)OC[C@H]1O[C@@H](n2ccc(=O)[nH]c2=O)[C@H](OC(C)=O)[C@@H]1OC(C)=O [TAU, 2′, 3′, 5′-tri-O-acetyl uridine]
[1]
  oral bioavailability: orally bioavailable

## Cc1oncc1C(=O)Nc1ccc(C(F)(F)F)cc1 [leflunomide, N-(4-trifluoromethylphenyl)-5-methylisoxazol-4-carboxamide]
[2]; leflunomide 5 mg/kg/day
  Graft survival: >30 days
  Inflammation score (Mean) (0-3): 2.0
[2]; leflunomide 10 mg/kg/day
  Graft survival: >30 days
  Inflammation score (Mean) (0-3): 1.7
[2]; leflunomide 15 mg/kg/day
  Graft survival: >30 days
  Inflammation score (Mean) (0-3): 1.5
[2]; leflunomide 5, 10, 15 mg/kg, dose-related
  Intensity of the rejection reaction (inflammation score): reduced the intensity of the rejection reaction
[3]; group mean, week 4
  Hct Week 4, group Mean: Mean: 23.8
[3]; listed as L 30
  Hct Week 0: 53 and 54 and 55 and 52
  Hct Week 1: 53 and 55 and 49 and 50
  Hct Week 2: 44 and 54 and 48 and 46
  Hct Week 3: 41 and 37 (2×) and 33
  Hct Week 4: 30 (2×) and 24 and 22
[3]; listed as L30
  Hct Week 0: 51 and 57
  Hct Week 1: 47 and 52
  Hct Week 2: 39 and 46
  Hct Week 3: 31 and 33
  Hct Week 4: 17 and 20

## O=C(O)c1cc(=O)[nH]c(=O)[nH]1 [orotic acid]
[2]; orotic acid 100 mg/kg with leflunomide 5-15 mg/kg
  Effect of orotic acid on efficacy of leflunomide to reduce the rejection reaction: did not significantly affect the efficacy of leflunomide
[1]; no test described
  bioavailability: approximately 50%
